Structures are written as SMILES.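 Exposure lasted 48 hours, with cells grown in 96-well plates and compounds tested at five concentrations. GI50: concentration for 50% inhibition of growth. TGI: concentration producing complete growth inhibition.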

What all share (assay): NCI tumour cell line growth inhibition, 48 h
Assay [1] deals with 786-0 renal.
The subject of assay [2] is CCRF-CEM leukemia.
Assay [3] relates to HL-60(TB) leukemia.
Assay [4] deals with IGROV1 ovarian.
Assay [5] concerns NCI-H460 lung.
For assay [6], the system named is RPMI-8226 leukemia.
In assay [7] the test system is SK-MEL-2 melanoma.
In assay [8] the test system is SN12C renal.
The subject of assay [9] is T-47D breast.
Assay [10] relates to RXF 393 renal.

As to `O=C(O[C@@H](/C=C/c1ccccc1)P1(=O)N(Cc2ccccc2)[C@@H]2CCCC[C@H]2N1Cc1ccccc1)c1ccccc1`, the TGI in assay [1] was > 100 µM; in [2], 80.9 µM; in assay [3] it was > 100 µM; in assay [4] it was 15.5 µM; in assay [5], > 100 µM; in assay [6] it was 6.24 µM. Besides, the TGI in [7] was 5.42 µM; in [8], 40.8 µM; in assay [9], 3.41 µM.

For the molecule `Cn1c2ccccc2c2c3c(=O)[nH][nH]c(=O)c3c3c4ccccc4n(C)c3c21`, the TGI in [1], in [2], in assay [4], in [5], in assay [6] and in [10] was > 100 µM each time. In addition, the TGI in assay [7], in assay [8] and in [9] was > 100 µM throughout.

For `COc1ccc2c(c1)-c1nc(=S)n(CCN(C)C)c3ccc([N+](=O)[O-])c(c13)N2`, the TGI in [1] came to 1.8 µM; in [4] it was 2.55 µM; in assay [5], 1.71 µM; in [6] it was 2.76 µM; in assay [10], 3.3 µM; in assay [7], 24.3 µM. Moreover, the TGI in assay [8] was 2.05 µM; in assay [9], 12.5 µM.

As to `O/N=C/[C@H]1COC2(CCCCC2)O1`, the TGI in assay [1], in assay [2], in assay [4], in [6], in assay [7] and in [8] was > 100 µM throughout.

Consider `Cc1ccc(S(=O)(=O)N2CCc3cc(O)c([N+](=O)[O-])cc32)cc1`, for which the TGI in assay [1], in [2], in assay [3], in [4], in assay [10] and in assay [7] was > 100 µM in each case. Moreover, the TGI in assay [8] and in [9] was > 100 µM throughout.

For the molecule `CC(C)(C)C#CI1OC(=O)c2ccccc21`, the TGI amounted to 11.5 µM in assay [1]; 6.09 µM in assay [2]; 12 µM in [4]; 11.9 µM in [5]; 5.11 µM in [6]; 30.4 µM in assay [10]. For the same molecule, the TGI in assay [7] was determined as 27 µM; in assay [8], 19 µM; in assay [9], 14.7 µM.

Turning to `CCc1ccc(OCc2ccccc2C(=O)Nc2ccc3nc(C)cc(N)c3c2)cc1`, the values for the GI50 in [10], in assay [7] and in [8] were 1.32 µM, 1.79 µM and 1.51 µM, respectively. The TGI in assay [10] turned out to be 2.75 µM; in assay [7], 3.39 µM; in assay [8], 3.02 µM.

For the molecule `O=c1cccc2n1CC1CNCC2C1` (centres undefined), the TGI in [1], in assay [2], in [3], in assay [5], in assay [6] and in assay [10] was > 100 µM throughout. The TGI in assay [7] and in assay [8] was > 100 µM in each case.

With `Fc1ccc(OCc2ccc3nc(-c4ccccc4)c(Cl)nc3c2)cc1`, the TGI in [1] is 56.9 µM; in assay [2], 89.8 µM; in assay [3], > 100 µM; in assay [4], 74.3 µM; in assay [5], > 100 µM; in assay [6], > 100 µM. Also, the TGI in assay [7], in assay [8] and in [9] was > 100 µM in each case.

Regarding `COC(=O)c1ccc2cc(O)ccc2c1`, the TGI in [1], in assay [2], in assay [4], in assay [6], in assay [10] and in [7] was > 100 µM in each case. For the same molecule, the TGI in [8] and in assay [9] was > 100 µM in each case.

Turning to `CCC1(c2ccc(OC)c(OC)c2)CCN2C(=O)C(O)CC21` (centres undefined), the TGI in assay [1], in assay [2], in assay [4], in assay [5], in assay [10] and in [7] was > 100 µM in each case. In addition, the TGI in [8] and in assay [9] was > 100 µM in each case.

`O=C(O)Cn1c[n+](NC(=O)Cc2ccccc2)cn1`: the TGI in assay [1], in assay [2], in [4], in assay [5], in assay [6] and in [8] was > 10 µM throughout. In assay [9], the TGI was > 10 µM.

In the case of `O=C(/C=C/CC(O)(c1ccccc1)c1ccccc1)Nc1ccccc1Cl`, the TGI in [2], in [3], in assay [5], in assay [6], in assay [7] and in assay [8] was > 100 µM throughout.

Consider `C=C1C[C@@H]2CC[C@@]34CC5O[C@H]6C(O[C@H]7CC[C@H](CC(=O)O[C@@H]8[C@@H](C)[C@@H]9O[C@@H]%10C[C@]%11(C[C@@H]%12O[C@]%13(C[C@H](C)[C@@H]%14O[C@@H]%15CC(C(COC(C)=O)OC(C)=O)O[C@@H]%15C[C@@H]%14O%13)C[C@H](C)[C@@H]%12O%11)O[C@@H]%10C[C@@H]9O[C@H]8CC8O[C@@H](CC[C@@H]1O2)C[C@@H](C)C8(O)CO)O[C@@H]7[C@@H]6O3)[C@H]5O4` (some centres undefined), for which the TGI was > 1 µM in assay [1]; > 1 µM in assay [2]; > 1 µM in [4]; > 0.955 µM in assay [5]; > 1 µM in assay [6]; > 1 µM in assay [7]. Also, the values for the TGI in assay [8] and in assay [9] were > 1 µM and > 0.924 µM, respectively.

In the case of `CO[C@H](C)[C@](O)(C(=O)OCC1=CCN2CC[C@@H](O)[C@H]12)C(C)C`, the TGI in assay [1], in assay [2], in [4], in [5], in assay [6] and in assay [7] was > 100 µM in each case. Moreover, the TGI in assay [8] and in assay [9] was > 100 µM each time.

In the case of `CC(=O)OC1COC(N2c3ccccc3[C@@H]3CCc4c([nH]c5ccccc45)[C@@H]32)C(OC(C)=O)C1OC(C)=O` (mixture of isomers), the TGI in [2] is > 100 µM; in assay [4] it was 54 µM; in [5], > 100 µM; in assay [6], > 100 µM; in [7], > 100 µM; in assay [8], > 100 µM.

Take `O=C1c2c(Br)sc(Br)c2[C@H]2OC(=S)N[C@@H]12`: the TGI in assay [1] amounted to 27 µM; in [4], 23.9 µM; in assay [5] it was 34.2 µM; in assay [6], 40.3 µM; in assay [10], 8.8 µM; in [7] it was 29 µM. For the same molecule, the TGI in assay [8] worked out at 8.7 µM; in assay [9], 44.2 µM.

In the case of `Nn1nnc2ccccc21`, the TGI in assay [1], in [2], in assay [3], in [4], in [5] and in assay [6] was > 100 µM each time. For the same molecule, the TGI in assay [8] and in assay [9] was > 100 µM each time.

With `CCc1nc2c([nH]1)C(=O)c1ccccc1C2=O`, the TGI in assay [1] was > 100 µM; in assay [2], > 100 µM; in assay [3], 94.7 µM; in assay [5] it was > 100 µM; in assay [10] it was > 100 µM; in assay [7] it was > 100 µM. In addition, in assay [8], the TGI was > 100 µM.

`CC(C)NC(=O)OCc1c(COC(=O)NC(C)C)n(C)c2c1ccc1cc(Cl)c(Cl)cc12`: the TGI is 20.5 µM in assay [1]; > 100 µM in assay [2]; 22.2 µM in assay [4]; 16.3 µM in [5]; 39.5 µM in [6]; 25 µM in [10]. The TGI in [7] was 32.2 µM; in [9] it was 18.8 µM.

On to `COc1ccc(CCn2ccc(=O)c(O)c2C)cc1OC`, for which the TGI in assay [1] was determined as 22.3 µM; in [3], 81.9 µM; in assay [5] it was 31.2 µM; in assay [6], 96.9 µM; in assay [9], 85.7 µM.

`COc1ccccc1Cn1c2c(c3cc(O)ccc31)C(=O)c1ccccc1C2=O`: the TGI in assay [1] was 45.5 µM; in [2], > 100 µM; in assay [3], > 100 µM; in assay [4], > 100 µM; in [5], > 100 µM; in assay [6], 45.7 µM. Further, the results for the TGI in assay [10], in [7] and in [8] were 14.3 µM, > 100 µM and > 100 µM, respectively.

Turning to `O=c1ccn([C@@H]2C=C(CO)[C@@H](O)[C@H]2O)c(=O)[nH]1`, the TGI in [2], in assay [3], in assay [4], in [5], in [10] and in assay [7] was > 625 µM each time. For the same molecule, the TGI in [8] is > 625 µM.

Consider `CCC(C)C(NC(=O)C(CCCC[N+](=N)N)NC(=O)C(CCCC[N+](=N)N)NC(=O)c1ccc(OC)cc1)C(=O)NC(CCCC[N+](=N)N)C(=O)N1CCCC1C(=O)NC(CCCCN)C(=O)NC(CC(C)C)C(N)=O` (centres undefined), for which the TGI in [1], in assay [2], in [5], in [6], in assay [10] and in assay [8] was > 100 µM in each case. Also, the TGI in [9] is > 100 µM.

Take `CN(C)CCN1C(=O)N(CCN(C)C)c2c3cc(O)ccc3nc3c([N+](=O)[O-])ccc1c23`: the TGI in [1] is 19 µM; in assay [2], 20 µM; in assay [4], 13.6 µM; in [5] it was 26.4 µM; in assay [6] it was 42.4 µM; in assay [7], 59.1 µM. Further, the TGI turned out to be 23.6 µM in [8] and 39.2 µM in assay [9].

As to `Clc1sc(Cl)c2c1[C@H](Br)C[C@@H]2Cl`, the TGI in assay [1] is 99.1 µM; in [2], 52.9 µM; in [4] it was 44.6 µM; in assay [5] it was > 100 µM; in assay [6], > 100 µM; in assay [10], 87.6 µM. The TGI was > 100 µM in assay [7], 85.3 µM in [8] and > 100 µM in [9].

With `CC1OC2OC3C(OCC(O)C3O)OC(=O)[C@]34CCC(C)(C)CC3C3=CCC5[C@@]6(C)C[C@H](O)[C@H](OC7OC(CO)C(O)C(O)C7OC7OC(COC(=O)CC(C)(O)CC(=O)OC1C(OC1OC(CO)C(O)C(O)C1O)C2O)C(O)C(O)C7O)[C@@](C)(CO)C6CC[C@@]5(C)[C@]3(C)CC4` (some centres undefined), the TGI in [1] came out at 11.9 µM; in assay [2] it was 14 µM; in [3] it was 3.13 µM; in [4], 11.8 µM; in assay [5], 19.8 µM; in [6], 10.2 µM. For the same molecule, the TGI in assay [7] worked out at 3.37 µM; in assay [8], 14.8 µM; in [9] it was 12.6 µM.

For the molecule `O=C(O)C12C3C4(C(=O)O)C1C1(C(=O)O)C2C3(C(=O)O)C41` (centres undefined), the TGI in assay [1], in assay [2], in assay [3], in assay [4], in assay [5] and in [6] was > 100 µM in each case. The TGI in [7], in assay [8] and in assay [9] was > 100 µM each time.

With `O=C1c2cc3c(cc2-c2c1c1cc(F)c(F)cc1c(=O)n2C[C@H](O)CO)OCO3`, the GI50 is 0.0349 µM in assay [2]; 0.0426 µM in [3]; 0.182 µM in assay [4]; 0.031 µM in assay [5]; 0.121 µM in assay [10]; 0.243 µM in assay [7]. The GI50 in assay [8] was 0.033 µM. In addition, the TGI in [2] was > 100 µM; in assay [3], > 100 µM; in assay [4] it was > 100 µM; in assay [5], 0.141 µM; in [10], 0.335 µM; in [7], 0.625 µM. For the same molecule, the TGI in assay [8] came out at 0.324 µM.

With `CSc1ncnc2c1cnn2Cc1cn(COCC(O)CO)nn1` (centres undefined), the TGI in assay [1], in [2], in assay [3], in assay [4], in [6] and in assay [7] was > 100 µM in each case. In addition, the TGI in assay [8] and in assay [9] was > 100 µM throughout.

The values above are taken from PubChem BioAssay (NCI).
